Results published in PMC10945739, “Exploring Cassia mimosoïdes as a promising natural source of steroids with potent anti-cancer, urease inhibition, and antimicrobial properties” (RSC Advances, 2024).
In brackets after ≈: the same amount, converted by molar mass. Where two headings read alike, the source gives them in different places.

Key:
[1] = molecular target: Jack bean urease (Canavalia ensiformis, UniProt P07374); test: biochemical; type: biochemical; conditions: for inhibition at 500 µM: pH 6.8, read-out: % Inhibition of urease
Chain of Jack bean urease (P07374 whole entry, looked up): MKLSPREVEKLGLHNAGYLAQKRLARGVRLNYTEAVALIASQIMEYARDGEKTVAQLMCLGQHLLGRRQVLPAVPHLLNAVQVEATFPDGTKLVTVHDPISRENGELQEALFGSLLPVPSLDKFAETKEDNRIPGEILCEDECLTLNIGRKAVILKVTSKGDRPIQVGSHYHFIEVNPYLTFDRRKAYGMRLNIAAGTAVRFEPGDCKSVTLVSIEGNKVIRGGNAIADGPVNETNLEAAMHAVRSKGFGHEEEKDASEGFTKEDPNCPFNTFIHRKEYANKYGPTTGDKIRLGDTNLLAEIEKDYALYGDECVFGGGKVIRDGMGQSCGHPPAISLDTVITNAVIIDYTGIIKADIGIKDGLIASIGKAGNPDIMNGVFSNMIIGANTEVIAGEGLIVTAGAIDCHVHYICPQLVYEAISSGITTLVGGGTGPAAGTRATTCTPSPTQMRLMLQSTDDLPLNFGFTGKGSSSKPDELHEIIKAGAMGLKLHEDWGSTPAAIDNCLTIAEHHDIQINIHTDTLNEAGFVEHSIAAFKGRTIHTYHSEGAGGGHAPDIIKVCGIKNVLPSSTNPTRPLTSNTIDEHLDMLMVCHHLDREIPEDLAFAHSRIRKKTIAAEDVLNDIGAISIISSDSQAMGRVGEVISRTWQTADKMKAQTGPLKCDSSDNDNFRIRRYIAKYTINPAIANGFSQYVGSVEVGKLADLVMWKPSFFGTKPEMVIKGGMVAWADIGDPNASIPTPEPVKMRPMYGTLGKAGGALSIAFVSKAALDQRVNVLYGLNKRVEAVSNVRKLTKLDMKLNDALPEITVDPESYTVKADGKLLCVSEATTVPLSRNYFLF
Description: The inhibition potential of the isolated compounds against urease was investigated using a SpectraMax M2 reader using 96-well microplates.
The kinetic assay involved preparing varying concentrations of both the test compound and the substrate (urea), spanning 0 μM, 5 μM, 10 μM, 15 μM, and 20 μM. The resulting data was utilized to construct a Lineweaver–Burk plot.
In 96-well plates were incubated at 37 °C for 15 min, reaction mixtures consisting of 25 μL of test compounds (each 0.5 mM), 25 μL of enzyme solution (Jack bean urease) and 55 μL of buffers containing 20.79 mM urea. The indophenol method described by Weatherburn[21] was used to determine urease inhibitor activity by measuring ammonia production. Briefly, to each well were added 70 μL of alkaline reagent (0.5% w/v NaOH and 0.1% active chloride, NaOCl) and 45 μL of phenolic reagent (1% w/v phenol and 0.005% w/v sodium nitroprusside). The microplate reader (Molecular Devices, USA) was used to measure the increase in absorbance at 650 nm after 50 min. A final volume of 245 μL was required to perform all reactions in a triplicate. The results (absorbance change per minute) were processed using SoftMax Pro software (Molecular Devices, USA). All assays were performed at pH 6.8. Inhibition percentages were calculated from the formula% Inhibition = 100 − (Abs(sample)/Abs(control)) × 100where “A” is the absorbance of the “test well” as well as the “control”. Thiourea was used as a standard.

[2] = tested on: human HepG2 hepatic cancer cells; test: MTT cell viability assay; type: cell-based; conditions: Homo sapiens, HepG2, 48 h
Description: The human liver cells were cultivated in Dulbecco's modified Eagle medium (DMEM) in which 100 U mL^−1 penicillin, 10% fetal bovine and […] streptomycin were added and kept at 37 °C in a […] carbon dioxide induced humidified environment. The human liver cells prepared as per above procedure were then treated with synthesized compounds diluted to 0.05% DMSO concentration.
Using MTT assay, the % viability of cancer cells 36 was evaluated. According to the standard procedure, HepG2 cells were treated with various dosages of synthesized compounds for 48 hours each. The cells were then incubated for 4 hours at 37 °C with 10μ MTT reagent (5 mg mL^−1). Next, in 150 μL DMSO was added to dissolve formazan crystals. The λmax was recorded at 409 nm in a microplate reader (thermos scientific).

[3] = tested on: Alternaria alternata; test: Antifungal bioassay, poisoned medium technique; type: cell-based; conditions: 168 h, poisoned medium, 25 ± 2 °C, seven days, read-out: MIC values against Alternaria alternata
Description: (§1) Anti-microbial assays of the isolated componds were performed against the selected strain of fungi i.e., Alternaria alternata, Aspergillus fumigatus, Aspergillus niger, and Penicillium citrii.
(§2) Alternaria alternata, Aspergillus fumigatus, Aspergillus niger, and Penicillium citrii strains were obtained from the Biotechnology lab at COMSATS University Islamabad. The antifungal activity of isolated compounds was assessed using poisoned medium technique. Two percent malt extract agar medium was generated by autoclaving at 121 °C for 30 minutes. Weighed volumes of the compounds were dissolved in […] of sterilized distilled water and put to flasks containing 59.5 mL of malt extract agar medium while they were still molten to obtain final concentrations of 100, 300, 500, 700, 900, and 1000 ppm. The control received the same amount of distilled water. Each sterile Petri plate with a diameter of 90 mm was filled with 20 mL of each medium and allowed to solidify. 5 mm diameter mycelial discs were produced from the tips of 5–7 day-old cultures of the four test fungus species and put in the center of each Petri dish using a sterile cork borer. Every treatment was duplicated three times. Plates were cultured in an incubator at 25 ± 2 °C for seven days. To calculate the rate of fungal growth, the three diameters of each colony were measured at right angles and averaged. Table 2 MIC values (μM) of the isolated compounds against Alternaria alternata, Aspergillus fumigatus, Aspergillus niger, and Penicillium citrii strains.[19]

[4] = tested on: Aspergillus fumigatus; test: Antifungal bioassay, poisoned medium technique; type: cell-based; conditions: 168 h, poisoned medium, 25 ± 2 °C, seven days, read-out: MIC values against Aspergillus fumigatus
Description: as §1, §2

[5] = tested on: Aspergillus niger; test: Antifungal bioassay, poisoned medium technique; type: cell-based; conditions: 168 h, poisoned medium, 25 ± 2 °C, seven days, read-out: MIC values against Aspergillus niger
Description: as §1, §2

[6] = tested on: Penicillium citrii; test: Antifungal bioassay, poisoned medium technique; type: cell-based; conditions: 168 h, poisoned medium, 25 ± 2 °C, seven days, read-out: MIC values against Penicillium citrii
Description: as §1, §2

[7] = HepG2, MTT, 48 hours, at 200 μg

Row | SMILES | IC50 [1] | inhibition at 500 µM [1] | viability at 200 µg [2, 7] | MIC [3] | MIC [4] | MIC [5] | MIC [6] | also measured
1 | COc1cc(O)cc2oc(-c3ccc(O)c(O)c3)cc(=O)c12 [Compound 4, Luteolin-5-methyl ether] | 3.87 ± 0.24 µM | 82.7% | 90.5 ± 2.15% | – | – | – | – | –
2 | CCC(CCC(C)C1CCC2C3CC(=O)C4=CC(=O)CCC4(C)C3CCC12C)C(C)C (stereo not shown) [Stigmast-4-en-3,6-dione] | – | – | – | 0.15 ± 0.005 µM (≈ 0.064 µg/mL) | 0.125 ± 0.0015 µM (≈ 0.0533 µg/mL) | 0.02 ± 0.006 µM (≈ 0.00853 µg/mL) | 0.04 ± 0.003 µM (≈ 0.0171 µg/mL) | –
3 | CC[C@H](CC[C@@H](C)[C@H]1CC[C@H]2[C@@H]3CC=C4C[C@@H](O)CC[C@]4(C)[C@H]3CC[C@]12C)C(C)C [Compound 15, β-Sitosterol] | 2.78 ± 0.24 µM | 80% | – | – | – | – | – | viability at 200 µg [2]: 94.4 ± 4.42%
4 | Cc1cc(O)c2c(c1)C(=O)c1cc(O)cc(O)c1C2=O [Compound 11, Emodin] | 5.2 ± 0.14 µM | 72.9% | 83.89 ± 0.73% | – | – | – | – | –
5 | CC[C@H](CC[C@@H](C)C1CCC2C3CC=C4C[C@@H](O[C@@H]5O[C@H](CO)[C@@H](O)[C@H](O)[C@H]5O)CC[C@]4(C)C3CC[C@@]21C)C(C)C (stereo partly drawn) [Compound 16, β-Sitosterol 3-O-β-D-glucopyranoside] | – | 19.5% | 96.4 ± 2.2% | – | – | – | – | –
6 | O=c1cc(-c2ccc(O)cc2)oc2c([C@@H]3O[C@H](CO)[C@@H](O)[C@H](O)[C@H]3O)c(O)cc(O)c12 [Compound 5, Apigenin-8-C-β-D-glucopyranoside] | 4.73 ± 0.22 µM | 77.5% | – | – | – | – | – | viability at 200 µg [2]: 94.7 ± 7.4%
7 | CC[C@H](CC[C@@H](C)[C@H]1CC[C@H]2[C@@H]3C[C@H](O)C4=C[C@@H](O)CC[C@]4(C)[C@H]3CC[C@]12C)C(C)C [Stigmast-4-en-3β,6α-diol] | – | – | – | 0.045 ± 0.003 µM (≈ 0.0194 µg/mL) | 0.01 ± 0.006 µM (≈ 0.00431 µg/mL) | 0.015 ± 0.005 µM (≈ 0.00646 µg/mL) | 0.2 ± 0.03 µM (≈ 0.0861 µg/mL) | –
8 | Cc1cc(O)c2c(c1)C(=O)c1cccc(O)c1C2=O [Chrysophanol] | – | – | – | 0.012 ± 0.003 µM (≈ 0.00305 µg/mL) | 0.06 ± 0.001 µM (≈ 0.0153 µg/mL) | 0.03 ± 0.002 µM (≈ 0.00763 µg/mL) | 0.05 ± 0.001 µM (≈ 0.0127 µg/mL) | –
9 | NC(N)=S [thiourea, reference compound] | – | – | – | – | – | – | – | IC50 ([1]; pH 6.8, read-out: IC50 ± SEM, urease): 18.61 ± 0.11 µM; IC50 ([1]; read-out: IC50, urease (conclusions)): 18.61 ± 0.11 µM; % Inhibition of urease ([1]; test compounds each 0.5 mM, pH 6.8): 86.73%
10 | Cc1cc(O)c2c(c1)C(=O)c1cccc(O)c1C2=O [Compound 12, Chrysophanol] | 5.92 ± 0.25 µM | 78.2% | 59.3 ± 2.2% | – | – | – | – | –
11 | O=c1cc(-c2ccc(O)c(O)c2)oc2cc(O)cc(O)c12 [Compound 2, Luteolin] | 1.3 ± 0.28 µM | 82% | 82.5 ± 4.31% | 0.043 ± 0.002 µM (≈ 0.0123 µg/mL) | 0.01 ± 0.004 µM (≈ 0.00286 µg/mL) | 0.021 ± 0.001 µM (≈ 0.00601 µg/mL) | 0.05 ± 0.002 µM (≈ 0.0143 µg/mL) | –
12 | Cc1cc(O)c2c(c1)C(=O)c1cc(O)cc(O)c1C2=O [Emodin] | – | – | – | 0.01 ± 0.006 µM (≈ 0.0027 µg/mL) | 0.035 ± 0.005 µM (≈ 0.00946 µg/mL) | 0.04 ± 0.003 µM (≈ 0.0108 µg/mL) | 0.045 ± 0.005 µM (≈ 0.0122 µg/mL) | –
